The supplement of paper PMC10307832

How the values were obtained:
Test in all cases: relative viability (nuclei count vs DMSO), 5 days (fraction); higher = more cells survive
Cediranib + Trametinib = compound: COc1cc2c(Oc3ccc4[nH]c(C)cc4c3F)ncnc2cc1OCCCN1CCCC1 [Cediranib] + CC(=O)Nc1cccc(-n2c(=O)n(C3CC3)c(=O)c3c(Nc4ccc(I)cc4F)n(C)c(=O)c(C)c32)c1 [Trametinib] (partner 0.02 µM)
Procedure, shortened: (§1)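 Lung cancer cell lines in 1536-well plates were dosed by pin tool the day after seeding, either with one drug alone or with a fixed anchor-drug dose plus five library-drug doses (not always all listed) in √10 steps. After 5 days, cells were fixed and their nuclei stained in one step (final 0.05% Triton X-100, 1% formaldehyde, 1 ug/ml Hoechst), then counted on 4× images. Relative viability is the nuclei count in treated wells divided by that in vehicle wells. Values are medians of duplicate plates.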

Cediranib + Tozasertib = compound: COc1cc2c(Oc3ccc4[nH]c(C)cc4c3F)ncnc2cc1OCCCN1CCCC1 [Cediranib] + Cc1cc(Nc2cc(N3CCN(C)CC3)nc(Sc3ccc(NC(=O)C4CC4)cc3)n2)n[nH]1 [Tozasertib] (partner 0.1 µM)
Procedure, shortened: as §1

Cediranib + Dasatinib = compound: COc1cc2c(Oc3ccc4[nH]c(C)cc4c3F)ncnc2cc1OCCCN1CCCC1 [Cediranib] + Cc1nc(Nc2ncc(C(=O)Nc3c(C)cccc3Cl)s2)cc(N2CCN(CCO)CC2)n1 [Dasatinib] (partner 0.075 µM)
Procedure, shortened: as §1

Decitabine + Trametinib = compound: Nc1ncn([C@H]2C[C@H](O)[C@@H](CO)O2)c(=O)n1 [Decitabine] + CC(=O)Nc1cccc(-n2c(=O)n(C3CC3)c(=O)c3c(Nc4ccc(I)cc4F)n(C)c(=O)c(C)c32)c1 [Trametinib] (partner 0.02 µM)
Procedure, shortened: as §1

Cell Line	relative viability (Cediranib + Trametinib; first compound 0.04 µM)	relative viability (Cediranib + Trametinib; first compound 0.1265 µM)	relative viability (Cediranib + Trametinib; first compound 0.4 µM)	relative viability (Cediranib + Trametinib; first compound 1.265 µM)	relative viability (Cediranib + Trametinib; first compound 4 µM)	relative viability (Cediranib + Tozasertib; first compound 0.04 µM)	relative viability (Cediranib + Tozasertib; first compound 0.1265 µM)	relative viability (Cediranib + Tozasertib; first compound 0.4 µM)	relative viability (Cediranib + Tozasertib; first compound 4 µM)	relative viability (Cediranib + Dasatinib; first compound 0.04 µM)	relative viability (Cediranib + Dasatinib; first compound 0.1265 µM)	relative viability (Cediranib + Dasatinib; first compound 0.4 µM)	relative viability (Cediranib + Dasatinib; first compound 4 µM)	relative viability (Decitabine + Trametinib; first compound 0.04 µM)	relative viability (Decitabine + Trametinib; first compound 0.1265 µM)	relative viability (Decitabine + Trametinib; first compound 0.4 µM)	relative viability (Decitabine + Trametinib; first compound 1.265 µM)	relative viability (Decitabine + Trametinib; first compound 4 µM)	relative viability (Cediranib + Tozasertib; first compound 1.265 µM)	relative viability (Cediranib + Dasatinib; first compound 1.265 µM)
NCI-H596	0.767	0.778	0.73	0.771	0.918	1.13	0.891	0.782	0.986	0.67	0.616	0.548	0.618	0.881	0.744	0.509	0.575	0.542	–	–
NCI-H647	0.48	0.428	0.441	0.515	0.491	0.306	0.225	0.3	0.255	0.215	0.177	0.102	0.224	0.589	0.595	0.43	0.246	0.138	0.227	0.22
NCI-H650	0.96	0.85	1.06	1.09	1.03	0.739	0.563	0.709	0.707	0.434	0.458	0.434	0.482	0.717	0.561	0.418	0.319	0.259	0.774	0.453
NCI-H661	0.609	0.751	0.567	0.522	0.61	0.255	0.365	0.338	0.372	1.01	1.28	0.842	0.976	0.502	0.577	0.508	0.392	0.404	0.349	0.926
NCI-H727	0.374	0.376	0.358	0.374	0.384	–	0.591	0.536	0.549	–	–	0.358	0.367	0.396	0.377	0.344	0.372	0.363	0.762	0.337
NCI-H838	0.508	0.494	0.491	0.514	0.705	0.272	0.264	0.229	0.276	0.292	0.268	0.285	0.315	0.476	0.397	0.237	0.283	0.279	0.297	0.241
NCI-H1355	0.401	0.432	0.417	0.439	0.464	0.548	0.684	0.482	0.492	0.686	0.745	0.658	0.747	0.371	0.382	0.337	0.224	0.248	0.564	0.655
NCI-H1395	1.05	1.04	0.999	0.954	0.904	0.739	0.773	0.666	0.791	0.44	0.45	0.37	0.405	0.793	0.906	0.828	0.655	0.607	0.74	0.374
NCI-H1437	0.521	0.449	0.509	0.625	0.621	0.434	0.426	0.365	0.421	0.455	0.543	0.445	0.399	0.444	0.412	0.404	0.337	0.342	0.412	0.385
NCI-H1650	0.574	0.606	0.541	0.54	0.393	0.585	0.374	0.36	0.329	0.343	0.384	0.328	0.299	0.369	0.642	0.536	0.326	0.287	0.476	0.37
NCI-H1651	0.826	0.874	0.846	0.855	0.821	0.619	0.696	0.596	0.815	0.53	0.46	0.432	0.343	0.787	0.757	0.692	0.622	0.487	0.676	0.385
NCI-H1666	0.87	0.655	0.838	0.844	0.877	0.651	0.678	0.598	0.624	0.831	0.888	0.797	0.762	0.785	0.873	0.713	0.783	0.836	0.595	0.829
NCI-H1734	0.658	0.663	0.71	0.633	0.683	0.262	0.246	0.278	0.245	0.463	0.647	0.479	0.518	0.595	0.575	0.404	0.313	0.333	0.277	0.364
NCI-H1755	0.8	0.804	0.709	0.81	0.783	0.54	0.481	0.532	0.547	0.471	0.59	0.343	0.424	0.653	0.743	0.688	0.564	0.488	0.595	0.463
NCI-H1793	0.449	0.446	0.407	0.435	0.432	0.414	0.419	0.347	0.329	0.317	0.415	0.398	0.501	0.399	0.407	0.463	0.339	0.35	–	–
NCI-H1915	0.318	0.308	0.3	0.307	0.272	0.467	0.384	0.428	0.42	0.279	0.305	0.305	0.345	0.233	0.223	0.218	0.192	0.184	0.46	0.324
NCI-H1944	0.402	0.377	0.409	0.4	0.474	0.255	0.264	0.244	0.266	0.216	0.227	0.221	0.236	0.435	0.441	0.369	0.254	0.256	0.24	0.193
NCI-H1975	0.377	0.388	0.338	0.373	0.337	0.822	0.809	0.699	0.768	0.361	0.35	0.337	0.352	0.284	0.272	0.219	0.233	0.219	0.822	0.356
NCI-H1993	–	0.48	0.56	0.504	0.641	0.607	0.586	0.596	0.734	0.567	0.702	0.537	0.649	0.491	0.431	0.394	0.432	0.511	0.565	0.434
NCI-H2009	0.288	0.335	0.237	0.213	0.276	0.775	0.763	0.703	0.795	0.311	0.523	0.301	0.309	0.227	0.255	0.229	0.181	0.252	0.732	0.297
NCI-H2023	0.592	0.585	0.565	0.591	0.905	0.389	0.353	0.267	0.303	0.594	0.623	0.567	0.668	0.473	0.464	0.296	0.196	0.197	0.433	0.537
NCI-H2085	0.571	0.523	0.475	0.49	0.526	0.756	0.877	0.757	0.784	0.257	0.26	0.273	0.23	0.514	0.451	0.394	0.364	0.308	0.836	0.272
NCI-H2087	0.221	0.29	0.179	0.183	0.288	0.279	0.257	0.213	0.228	0.872	0.953	0.801	0.905	0.175	0.179	0.189	0.179	0.163	0.226	0.944
NCI-H2126	0.575	0.551	0.551	0.578	0.531	0.84	0.916	0.77	0.773	0.634	0.569	0.609	0.543	0.576	0.545	0.474	0.422	0.44	0.777	0.554
NCI-H2170	0.993	–	0.935	0.81	0.986	0.846	0.659	0.735	0.787	0.523	0.713	0.605	0.566	0.651	0.639	0.587	0.41	0.282	0.677	0.384
NCI-H2228	0.46	0.376	0.398	0.565	0.505	0.26	0.351	0.237	0.203	0.634	0.505	0.52	0.601	0.396	0.394	0.358	0.198	0.204	0.207	0.54
NCI-H2342	0.841	0.897	0.849	0.877	0.812	0.54	0.575	0.568	0.484	0.334	0.392	0.288	0.327	0.959	1.03	0.88	0.606	0.72	0.536	0.295
